Where two headings read alike, the source gives them in different places.

This assay addresses T1, rat brain N-type calcium channel subunits (α1B+α2δ+β1b cDNA subunits) (Rattus norvegicus, UniProt Q02294).
T1 construct: expressed in transfected cells; host or cells: HEK 293 (human embryonic kidney), stably transfected; alternatively transiently transfected
As to the kind of experiment: N-type calcium channel block, whole cell patch clamp in HEK 293 cells. It counts as cell-based. The settings on record: holding potential −80 mV to +10 mV. Here is the method: N-type calcium channel blocking activity was assayed in human embryonic kidney cells, HEK 293, stably transfected with the rat brain N-type calcium channel subunits (α1B+α2δ+β1b cDNA subunits). Alternatively, N-type calcium channels (α1B+α2δ+β1b cDNA subunits), L-type channels (α1C+α2δ+β1b cDNA subunits) and P/Q-type channels (α1A+α2δ+β1b cDNA subunits) were transiently expressed in HEK 293 cells. Briefly, cells were cultured in Dulbecco's modified eagle medium (DMEM) supplemented with 10% fetal bovine serum, 200 U/ml penicillin and 0.2 mg/ml streptomycin at 37 with 5% CO2. At 85% confluency cells were split with 0.25% trypsin/1 mM EDTA and plated at 10% confluency on glass coverslips. At 12 hours the medium was replaced and the cells transiently transfected using a standard calcium phosphate protocol and the appropriate calcium channel cDNA's. Fresh DMEM was supplied and the cells transferred to 28° C./5% CO2. Cells were incubated for 1 to 2 days prior to whole cell recording.
Whole cell patch clamp experiments were performed using an Axopatch 200B amplifier (Axon Instruments, Burlingame, Calif.) linked to a personal computer equipped with pCLAMP software. The external and internal recording solutions contained, respectively, 5 mM BaCl2, 10 mM MgCl2, 10 mM HEPES, 40 mM TEACl, 10 mM glucose, 87.5 mM CsCl (pH 7.2) and 108 mM CsMS, 4 mM MgCl2, 9 mM EGTA, 9 mM HEPES (pH 7.2). Currents were typically elicited from a holding potential of −80 mV to +10 mV using Clampex software (Axon Instruments). Typically, currents were first elicited with low frequency stimulation (0.067 Hz) and allowed to stabilize prior to application of the compounds. The compounds were then applied during the low frequency pulse trains for two to three minutes to assess tonic block, and subsequently the pulse frequency was increased to 0.2 Hz to assess frequency dependent block. Data were analyzed using Clampfit (Axon Instruments) and SigmaPlot 4.0 (Jandel Scientific).
A general note: Patch clamp records ionic current or voltage across a cell membrane.

Where [1] appears, read: low frequency stimulation 0.067 Hz (tonic block), read-out: IC50 @ 0.067 Hz.
Where [2] appears, read: pulse frequency 0.2 Hz (frequency dependent block), read-out: IC50 @ 0.2 Hz.

T1 sequence (Q02294 whole entry): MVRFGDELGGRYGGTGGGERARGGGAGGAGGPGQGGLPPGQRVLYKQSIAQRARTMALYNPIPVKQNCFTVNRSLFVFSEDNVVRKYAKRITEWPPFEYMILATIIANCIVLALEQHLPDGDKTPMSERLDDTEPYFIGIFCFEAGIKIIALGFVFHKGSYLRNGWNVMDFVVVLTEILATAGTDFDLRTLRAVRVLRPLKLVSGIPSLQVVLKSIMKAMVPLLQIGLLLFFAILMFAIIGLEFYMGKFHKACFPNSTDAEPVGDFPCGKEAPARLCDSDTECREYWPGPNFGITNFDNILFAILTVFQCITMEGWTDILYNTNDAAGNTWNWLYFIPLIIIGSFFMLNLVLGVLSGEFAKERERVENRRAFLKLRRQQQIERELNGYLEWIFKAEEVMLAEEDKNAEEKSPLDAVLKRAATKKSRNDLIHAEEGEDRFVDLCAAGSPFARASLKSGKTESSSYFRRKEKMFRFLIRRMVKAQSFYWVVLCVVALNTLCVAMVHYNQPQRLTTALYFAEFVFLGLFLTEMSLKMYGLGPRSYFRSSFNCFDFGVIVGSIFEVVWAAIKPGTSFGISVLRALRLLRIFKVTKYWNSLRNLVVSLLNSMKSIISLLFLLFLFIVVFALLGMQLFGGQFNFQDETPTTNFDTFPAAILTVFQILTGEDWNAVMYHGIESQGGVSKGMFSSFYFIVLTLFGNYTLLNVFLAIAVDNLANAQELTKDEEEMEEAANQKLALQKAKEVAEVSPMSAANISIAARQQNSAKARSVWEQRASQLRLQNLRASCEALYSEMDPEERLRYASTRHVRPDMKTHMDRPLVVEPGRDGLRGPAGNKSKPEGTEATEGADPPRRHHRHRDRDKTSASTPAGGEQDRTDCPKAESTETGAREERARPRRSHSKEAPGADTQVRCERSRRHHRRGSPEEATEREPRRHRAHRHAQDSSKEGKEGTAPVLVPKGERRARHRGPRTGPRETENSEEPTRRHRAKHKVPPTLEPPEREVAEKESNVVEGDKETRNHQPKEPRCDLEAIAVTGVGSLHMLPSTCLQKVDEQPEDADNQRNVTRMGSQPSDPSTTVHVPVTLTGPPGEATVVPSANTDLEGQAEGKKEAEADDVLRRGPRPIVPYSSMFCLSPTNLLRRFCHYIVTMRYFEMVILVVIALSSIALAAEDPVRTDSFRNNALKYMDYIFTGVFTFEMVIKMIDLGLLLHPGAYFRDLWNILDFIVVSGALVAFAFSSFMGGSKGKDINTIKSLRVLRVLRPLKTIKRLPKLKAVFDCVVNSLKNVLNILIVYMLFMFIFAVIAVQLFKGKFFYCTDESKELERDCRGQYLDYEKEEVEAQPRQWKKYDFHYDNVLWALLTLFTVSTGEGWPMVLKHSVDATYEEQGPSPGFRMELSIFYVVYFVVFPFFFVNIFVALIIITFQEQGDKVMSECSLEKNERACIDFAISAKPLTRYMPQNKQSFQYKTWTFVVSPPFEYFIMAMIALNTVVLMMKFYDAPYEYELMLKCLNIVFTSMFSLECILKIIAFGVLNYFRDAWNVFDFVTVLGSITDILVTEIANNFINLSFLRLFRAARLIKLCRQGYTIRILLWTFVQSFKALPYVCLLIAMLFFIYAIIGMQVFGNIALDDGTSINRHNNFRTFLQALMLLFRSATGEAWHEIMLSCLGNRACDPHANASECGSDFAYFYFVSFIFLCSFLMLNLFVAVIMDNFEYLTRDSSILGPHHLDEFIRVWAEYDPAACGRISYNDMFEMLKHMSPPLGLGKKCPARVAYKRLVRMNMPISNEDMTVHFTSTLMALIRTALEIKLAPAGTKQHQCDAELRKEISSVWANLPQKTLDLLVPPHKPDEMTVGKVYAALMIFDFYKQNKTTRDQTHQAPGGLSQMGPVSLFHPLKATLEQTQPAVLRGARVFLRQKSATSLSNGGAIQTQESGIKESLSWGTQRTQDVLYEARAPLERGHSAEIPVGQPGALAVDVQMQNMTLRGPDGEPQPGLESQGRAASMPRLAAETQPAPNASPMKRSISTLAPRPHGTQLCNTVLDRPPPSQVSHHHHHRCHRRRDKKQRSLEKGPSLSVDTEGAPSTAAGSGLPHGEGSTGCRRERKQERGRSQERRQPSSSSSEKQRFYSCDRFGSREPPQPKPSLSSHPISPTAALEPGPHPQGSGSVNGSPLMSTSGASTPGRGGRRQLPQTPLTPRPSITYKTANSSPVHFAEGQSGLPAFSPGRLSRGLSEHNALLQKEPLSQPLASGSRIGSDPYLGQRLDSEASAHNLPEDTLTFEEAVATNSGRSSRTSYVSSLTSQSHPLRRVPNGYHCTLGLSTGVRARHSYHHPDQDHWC
T1 sequence (P54290 25-944 partner limits assumed): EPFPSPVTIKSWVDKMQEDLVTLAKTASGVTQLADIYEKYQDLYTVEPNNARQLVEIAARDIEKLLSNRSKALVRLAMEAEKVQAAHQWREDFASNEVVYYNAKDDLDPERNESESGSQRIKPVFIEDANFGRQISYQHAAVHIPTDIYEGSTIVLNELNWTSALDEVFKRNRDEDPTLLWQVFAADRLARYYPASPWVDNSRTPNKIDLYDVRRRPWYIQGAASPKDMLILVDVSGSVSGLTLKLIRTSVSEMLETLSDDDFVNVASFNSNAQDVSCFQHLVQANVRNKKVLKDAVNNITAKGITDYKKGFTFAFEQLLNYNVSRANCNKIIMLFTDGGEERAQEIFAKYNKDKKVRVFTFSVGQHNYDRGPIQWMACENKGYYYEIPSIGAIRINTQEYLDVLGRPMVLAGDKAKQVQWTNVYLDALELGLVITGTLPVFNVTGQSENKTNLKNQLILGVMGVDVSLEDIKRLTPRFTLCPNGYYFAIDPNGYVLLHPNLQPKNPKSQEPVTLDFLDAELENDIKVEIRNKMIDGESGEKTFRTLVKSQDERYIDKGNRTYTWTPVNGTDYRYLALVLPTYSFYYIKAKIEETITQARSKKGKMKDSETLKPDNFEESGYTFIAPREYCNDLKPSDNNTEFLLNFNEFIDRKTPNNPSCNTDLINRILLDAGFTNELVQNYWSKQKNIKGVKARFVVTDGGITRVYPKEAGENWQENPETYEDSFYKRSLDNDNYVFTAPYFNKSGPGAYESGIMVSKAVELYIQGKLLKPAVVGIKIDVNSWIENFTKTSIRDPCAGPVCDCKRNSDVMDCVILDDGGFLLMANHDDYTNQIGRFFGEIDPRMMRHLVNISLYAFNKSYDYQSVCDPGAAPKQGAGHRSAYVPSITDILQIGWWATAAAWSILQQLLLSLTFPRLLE
T1 sequence (P54290 945-1091 partner limits assumed): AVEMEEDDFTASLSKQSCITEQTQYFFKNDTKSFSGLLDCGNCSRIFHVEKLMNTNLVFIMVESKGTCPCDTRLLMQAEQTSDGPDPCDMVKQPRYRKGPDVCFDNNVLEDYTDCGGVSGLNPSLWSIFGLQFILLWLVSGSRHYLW
T1 sequence (P54283 whole entry partner): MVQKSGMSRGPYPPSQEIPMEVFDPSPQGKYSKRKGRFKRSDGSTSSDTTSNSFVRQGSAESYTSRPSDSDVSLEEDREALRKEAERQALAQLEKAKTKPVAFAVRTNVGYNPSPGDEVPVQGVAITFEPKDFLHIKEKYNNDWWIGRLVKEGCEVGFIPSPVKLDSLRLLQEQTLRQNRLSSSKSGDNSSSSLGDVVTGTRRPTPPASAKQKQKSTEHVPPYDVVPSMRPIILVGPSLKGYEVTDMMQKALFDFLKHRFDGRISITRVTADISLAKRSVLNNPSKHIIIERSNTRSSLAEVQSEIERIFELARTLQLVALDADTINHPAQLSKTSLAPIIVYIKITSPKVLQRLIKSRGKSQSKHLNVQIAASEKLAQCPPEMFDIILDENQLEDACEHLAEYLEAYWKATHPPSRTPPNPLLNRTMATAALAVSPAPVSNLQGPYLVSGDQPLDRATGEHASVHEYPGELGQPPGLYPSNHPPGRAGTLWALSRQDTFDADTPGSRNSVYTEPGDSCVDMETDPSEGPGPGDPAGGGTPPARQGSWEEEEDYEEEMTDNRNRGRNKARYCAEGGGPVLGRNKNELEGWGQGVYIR

`CC(NC(=O)C1CC1C(=O)N1CCN(C(c2ccccc2)c2ccccc2)CC1)c1ccccc1` (centres unmarked) [Compound 10, 2-(4-benzhydrylpiperazine-1-carbonyl)-N-(1-phenylethyl)cyclopropane carboxamide]: the IC50 under setting [1] was found to be 1550 nM and the IC50 under setting [2] was determined as 970 nM.
Turning to `CC1CCC(NC(=O)C2CC2C(=O)N2CCN(C(c3ccccc3)c3ccccc3)CC2)CC1` (centres unmarked) [Compound 12, 2-(4-benzhydrylpiperazine-1-carbonyl)-N-(4-methylcyclohexyl)cyclopropane carboxamide], the IC50 under setting [1] was 180 nM and the IC50 under setting [2] was determined as 120 nM.
Taken in the same sequence, the figures for `O=C(Nc1ccccc1)C1CC1C(=O)N1CCN(C(c2ccccc2)c2ccccc2)CC1` (centres unmarked) [Compound 6, 2-(4-benzhydrylpiperazine-1-carbonyl)-N-phenylcyclopropanecarboxamide] were 3200 nM and 1900 nM.
With `COc1ccccc1N1CCN(C(=O)C2CC2C(=O)N2CCN(C(c3ccccc3)c3ccccc3)CC2)CC1` (centres unmarked) [Compound 9, (4-benzhydrylpiperazin-1-yl)(2-(4-(2-methoxyphenyl)piperazine-1-carbonyl)cyclopropyl)methanone], the IC50 is, setting by setting: under setting [1], 630 nM; under setting [2], 430 nM.
For `CC1CCC(CN2CCN(C(=O)C3CC3C(=O)N3CCN(C(c4ccccc4)c4ccccc4)CC3)CC2)CC1` (centres unmarked) [Compound 18, (4-benzhydrylpiperazin-1-yl)(2-(4-((4-methylcyclohexyl)methyl)piperazine-1-carbonyl)cyclopropyl)methanone] the same measures were 690 nM and 440 nM.
In the case of `CC(C)(C)N1CCN(C(=O)C2CC2C(=O)N2CCN(C(c3ccccc3)c3ccccc3)CC2)CC1` (centres unmarked) [Compound 15, (4-benzhydrylpiperazin-1-yl)(2-(4-tert-butylpiperazine-1-carbonyl)cyclopropyl) methanone], the IC50 is, setting by setting: under setting [1], 8530 nM; under setting [2], 6860 nM.
With `O=C(C1CC1C(=O)N1CCN(C(c2ccccc2)c2ccccc2)CC1)N1CCN(c2ccccc2F)CC1` (centres unmarked) [Compound 8, (4-benzhydrylpiperazin-1-yl)(2-(4-(2-fluorophenyl)piperazine-1-carbonyl)cyclopropyl)methanone], the IC50 runs as follows: under setting [1], 940 nM; under setting [2], 530 nM.
Take `CC1CN(C(=O)C2CC2C(=O)N2CCN(C(c3ccccc3)c3ccccc3)CC2)CC(C)N1` (centres unmarked) [Compound 13, (4-benzhydrylpiperazin-1-yl)(2-(3,5-dimethylpiperazine-1-carbonyl)cyclopropyl)methanone]: the IC50 under setting [1] came to 710 nM and the IC50 under setting [2] was found to be 440 nM.
With `CN1CCN(C(=O)C2CC2C(=O)N2CCN(C(c3ccccc3)c3ccccc3)CC2)CC1` (centres unmarked) [Compound 3, (4-benzhydrylpiperazin-1-yl)(2-(4-methylpiperazine-1-carbonyl)cyclopropyl)methanone], the IC50 by setting is: under setting [1], 2500 nM; under setting [2], 1500 nM.
On to `COCCN1CCN(C(=O)C2CC2C(=O)N2CCN(C(c3ccccc3)c3ccccc3)CC2)CC1` (centres unmarked) [Compound 7], for which the IC50 under setting [1] stood at 2000 nM and the IC50 under setting [2] worked out at 1500 nM.
For `O=C(C1CC1C(=O)N1CCN(C(c2ccccc2)c2ccccc2)CC1)N1CCN(c2ccccc2)CC1` (centres unmarked) [Compound 2, (4-benzhydrylpiperazin-1-yl)(2-(4-phenylpiperazine-1-carbonyl)cyclopropyl)methanone] the same measures were 440 nM and 310 nM.
Take `CNC1CCN(C(=O)C2CC2C(=O)N2CCN(C(c3ccccc3)c3ccccc3)CC2)CC1` (centres unmarked) [Compound 16, (4-benzhydrylpiperazin-1-yl)(2-(4-(methylamino)piperadine-1-carbonyl)cyclopropyl)methanone]: the IC50 is, setting by setting: under setting [1], 12500 nM; under setting [2], 6790 nM.
Take `O=C(C1CC1C(=O)N1CCN(C(c2ccccc2)c2ccccc2)CC1)N1CCN(C(c2ccccc2)c2ccccc2)CC1` (centres unmarked) [Compound 1]: the IC50 by setting is: under setting [1], 160 nM; under setting [2], 150 nM.
For `CC(C)(C)C1CCC(NC(=O)C2CC2C(=O)N2CCN(C(c3ccccc3)c3ccccc3)CC2)CC1` (centres unmarked) [Compound 11, 2-(4-benzhydrylpiperazine-1-carbonyl)-N-(4-tert-butylcyclohexyl)cyclopropane carboxamide] the same measures were 90 nM and 80 nM.
Taken in the same sequence, the figures for `O=C(C1CC1C(=O)N1CCN(C(c2ccccc2)c2ccccc2)CC1)N1CCC(N2CCOCC2)CC1` (centres unmarked) [Compound 4, (4-benzhydrylpiperazin-1-yl)(2-(4-morpholinopiperadine-1-carbonyl)cyclopropyl)methanone] were greater than 5830 nM and greater than 3950 nM.
For `CC(C)N(C(=O)C1CC1C(=O)N1CCN(C(c2ccccc2)c2ccccc2)CC1)C(C)C` (centres unmarked) [Compound 14, 2-(4-benzhydrylpiperazine-1-carbonyl)-N,N-diisopropylcyclopropane carboxamide], the IC50 under setting [1] stood at 1560 nM and the IC50 under setting [2] stood at 860 nM.

In general, IC50 refers to the midpoint of a concentration-inhibition curve.

Values taken from patent US20100105682A1, “CYCLOPROPYL-PIPERAZINE COMPOUNDS AS CALCIUM CHANNEL BLOCKERS” (priority 2006, published 2010).
